Experimental data as given in patent US5387684A, “Isoindazole compound” (The Green Cross Corporation, priority 1992, dated 1995).
Counter-ions that a name gives are not always drawn.

Biological target: T1, angiotensin II receptor (Rattus norvegicus, UniProt P25095)
T1 sequence (P25095 1-359): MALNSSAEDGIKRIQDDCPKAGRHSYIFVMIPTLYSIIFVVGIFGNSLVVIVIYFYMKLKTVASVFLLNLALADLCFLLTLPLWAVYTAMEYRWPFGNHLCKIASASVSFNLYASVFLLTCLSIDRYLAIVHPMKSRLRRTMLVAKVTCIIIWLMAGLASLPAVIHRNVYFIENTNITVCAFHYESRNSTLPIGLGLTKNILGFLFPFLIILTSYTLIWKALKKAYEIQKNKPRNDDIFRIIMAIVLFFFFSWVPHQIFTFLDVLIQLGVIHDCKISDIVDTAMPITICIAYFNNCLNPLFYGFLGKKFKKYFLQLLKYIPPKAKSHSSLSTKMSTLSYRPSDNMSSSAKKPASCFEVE
Test: Inhibition of binding of angiotensin II to rat smooth muscle cells (125I-AII)
Details: ^125 I-Tyr^4-angiotensin II, smooth muscle cells from rat aorta, room temperature, 1 hour; read-out: inhibitory action (IC50) on the binding of angiotensin II to the receptor

| IC50 [nM] | SMILES |
| --- | --- |
| 2 | CCc1nc2c(C)cc(C)nc2n1Cc1ccc2nn(-c3ccccc3C(=O)O)c(Br)c2c1 |
| 4.3 | CCCCc1nc(Cl)c(CO)n1Cc1ccc2nn(-c3ccccc3C(=O)O)c(Br)c2c1 [Example 4, 1-[3-bromo-2-(2-carboxyphenyl)-2H-indazol-5-yl]methyl-2-butyl-4-chloro-5-(hydroxymethyl)-1H-imidazole] |
| 40 | CCCCc1nc(Cl)c(CO)n1Cc1ccc2nn(-c3ccccc3C(=O)O)cc2c1 [Example 5, 2-butyl-4-chloro-1-[2-(2-carboxyphenyl)-2H-indazol-5-yl]methyl-5-(hydroxymethyl)-1H-imidazole] |
| 19 | CCCCc1nc(Cl)c(C=O)n1Cc1ccc2nn(-c3ccccc3C(=O)O)c(Br)c2c1 [Example 6, 2-butyl-4-chloro-1-[3-bromo-2-(2-carboxyphenyl)-2H-indazol-5-yl]methyl-1H-imidazole-5-carbaldehyde] |
| 130 | CCCCc1nc(Cl)c(C=O)n1Cc1ccc2nn(-c3ccccc3C(=O)O)cc2c1 [Example 7, 2-butyl-4-chloro-1-[2-(2-carboxyphenyl)-2H-indazol-5-yl]methyl-1H-imidazole-5-carbaldehyde] |
| 2.5 | CCCCc1nc(Cl)c(C(=O)O)n1Cc1ccc2nn(-c3ccccc3C(=O)O)c(Br)c2c1 [Example 9, disodium 1-[3-bromo-2-(2-carboxyphenyl)-2H-indazol-5-yl]methyl-2-butyl-4-chloro-1H-imidazole-5-carboxylate] |
| 720 | CCCCc1nc(C(=O)O)c(Cl)n1Cc1ccc2nn(-c3ccccc3C(=O)O)c(Br)c2c1 [Example 10, disodium 2-butyl-5-chloro-1-[3-bromo-2-(2-carboxyphenyl)-2H-indazol-5-yl]methyl-1H-imidazole-4-carboxylate] |
| 60 | CCCCc1nc(Cl)c(C=O)n1Cc1ccc2nn(-c3ccccc3-c3nnn[nH]3)c(Br)c2c1 [Example 12, 1-{[3-bromo-2-[2-(1H-tetrazol-5-yl)phenyl]-2H-indazol-5-yl]methyl}-2-butyl-4-chloro-1H-imidazole-5-carbaldehyde] |
| 2.5 | CCCCc1nc(Cl)c(CO)n1Cc1ccc2nn(-c3ccccc3-c3nnn[nH]3)c(Br)c2c1 [Example 14, 1-{[3-bromo-2-[2-(1H-tetrazol-5-yl)phenyl]-2H-indazol-5-yl]methyl}-2-butyl-4-chloro-5-(hydroxymethyl)-1H-imidazole] |
| 1.4 | CCCc1nc2c(C)ccnc2n1Cc1ccc2nn(-c3ccccc3C(=O)O)c(Br)c2c1 [Example 20, 3-[3-bromo-2-(2-carboxyphenyl)-2H-indazol-5-yl]-methyl-7-methyl-2-propyl-3H-imidazo[4,5-b]pyridine] |
| 1.1 | CCc1nc2c(C)cc(C)nc2n1Cc1ccc2nn(-c3ccccc3-c3nnn[nH]3)c(Br)c2c1 [Example 21, 3-{[3-bromo-2-[2-(1H-tetrazol-5-yl)phenyl]-2H-indazol-5-yl]methyl}-2-ethyl-5,7-dimethyl-3H-imidazo[4,5-b]pyridine] |
| 1.8 | CCCc1nc2c(C)ccnc2n1Cc1ccc2nn(-c3ccccc3-c3nnn[nH]3)c(Br)c2c1 [Example 22, 3-{[3-bromo-2-[2-(1H-tetrazol-5-yl)phenyl]-2H-indazol-5-yl]methyl}-7-methyl-2-propyl-3H-imidazo[4,5-b]pyridine] |
| 3.1 | CCCCc1nc2cccnc2n1Cc1ccc2nn(-c3ccccc3-c3nnn[nH]3)c(Br)c2c1 [Example 23, 3-{[3-bromo-2-[2-(1H-tetrazol-5-yl)phenyl]-2H-indazol-5-yl]methyl}-2-butyl-3H-imidazo[4,5-b]pyridine] |
| 0.8 | CCc1nc2c(C)cc(C)nc2n1Cc1ccc2nn(-c3ccccc3-c3nnn[nH]3)c(Cl)c2c1 [Example 24, 3-{[3-chloro-2-[2-(1H-tetrazol-5-yl)phenyl]-2H-indazol-5-yl]methyl}-2-ethyl-5,7-dimethyl-3H-imidazo[4,5-b]pyridine] |
| 0.72 | CCc1nc2c(C)cc(C)nc2n1Cc1ccc2nn(-c3cccc(Cl)c3-c3nnn[nH]3)c(Br)c2c1 [Example 25, 3-{[3-bromo-2-[3-chloro-2-(1H-tetrazol-5-yl)-phenyl]-2H-indazol-5-yl]methyl}-2-ethyl-5,7-dimethyl-3H-imidazo[4,5-b]pyridine] |
| 6.7 | CCCCc1nc2cccnc2n1Cc1ccc2nn(-c3ccccc3C(=O)O)c(Br)c2c1 [sodium salt] |
